Activity calls are given as the source filed them. The rule behind the calls is not given here.
Tests used:
Type in all cases: cell-based
[1] = biological target: T1, Muscarinic acetylcholine receptor M4 (Homo sapiens) (UniProt P08173); experiment: Allosteric modulation of human M4 mAChR expressed in FIpIn-CHO cells assessed as ERK1/2 phosphorylation after 6 mins by Alphascreen assay in the presence of ACh
T1 sequence (whole entry): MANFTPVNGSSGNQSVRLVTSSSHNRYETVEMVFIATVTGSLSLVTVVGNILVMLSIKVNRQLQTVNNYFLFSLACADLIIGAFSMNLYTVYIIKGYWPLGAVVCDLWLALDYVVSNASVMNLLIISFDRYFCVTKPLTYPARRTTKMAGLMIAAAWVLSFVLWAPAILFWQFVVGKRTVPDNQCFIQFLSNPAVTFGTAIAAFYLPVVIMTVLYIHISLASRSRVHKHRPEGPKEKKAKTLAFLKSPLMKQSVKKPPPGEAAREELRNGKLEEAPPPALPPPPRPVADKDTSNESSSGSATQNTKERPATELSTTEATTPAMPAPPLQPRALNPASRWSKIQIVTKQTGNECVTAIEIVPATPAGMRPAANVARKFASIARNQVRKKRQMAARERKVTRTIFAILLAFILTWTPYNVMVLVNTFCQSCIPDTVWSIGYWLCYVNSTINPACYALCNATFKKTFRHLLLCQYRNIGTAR

[2] = biological target: T1, Muscarinic acetylcholine receptor M4 (Homo sapiens); experiment: Intrinsic activity at human M4 mAChR expressed in FIpIn-CHO cells assessed as ERK1/2 phosphorylation after 6 mins by Alphascreen assay in the presence of ACh
[3] = biological target: T1, Muscarinic acetylcholine receptor M4 (Homo sapiens); experiment: Allosteric modulation of human M4 mAChR expressed in FIpIn-CHO cells assessed as ERK1/2 phosphorylation measured overall cooperativity after 6 mins by Alphascreen assay
[4] = biological target: T2, Muscarinic acetylcholine receptor M4 (Homo sapiens, UniProt P08173); experiment: Displacement of [3H]NMS from human M4 mAChR expressed in FIpIn-CHO cells after 4 hrs by scintillation counting method in the presence of ACh
T2 sequence (P08173 whole entry): T1 sequence (whole entry)

[5] = biological target: T1, Muscarinic acetylcholine receptor M4 (Homo sapiens); experiment: Displacement of [3H]NMS from human M4 mAChR expressed in FIpIn-CHO cells assessed as ligand affinity after 4 hrs by scintillation counting method in the presence of ACh

`CCCCOc1nc2sc(C(=O)NC3CC3)c(N)c2c(C)c1Cl` was tested, and the Kb [1] was 200 nM, the pKb [1] was 6.81 and the Intrinsic activity [2] was 0.3. For the same molecule, the log(IA) [2] was -0.51, the Activity [3] was 2.5 and the log(activity) [3] was 0.4. The Ki [4] was 2700 nM, the Activity [5] was 22.4 and the log(activity) [5] was 1.35.
In the case of `COc1nc2sc(C(=O)NC3CC3)c(NC(C)=O)c2c(C)c1Cl`, the Kb [1] is reported as “inactive”, the pKb [1] is reported as “inactive” and the Intrinsic activity [2] is reported as “inactive”. The “log(IA)” value [2] was “inactive”, the Activity [3] was “inactive” and the “log(activity)” value [3] was “inactive”.
With `CCOc1nc2sc(C(=O)NC3CC3)c(N)c2c(C)c1Cl` the Kb [1] was 800 nM, the pKb [1] was 6.1 and the Intrinsic activity [2] was 9.3. For the same molecule, the log(IA) [2] was 0.97, the Activity [3] was 61.7 and the log(activity) [3] was 1.79. It also gave a Ki [4] of 200 nM, an Activity [5] of 95.5 and a log(activity) [5] of 1.98.
For `COc1cc(C)c2c(N)c(C(=O)NC3CC3)sc2n1`, the Kb [1] was 2800 nM, the pKb [1] was 5.55 and the Intrinsic activity [2] was 4.6. The log(IA) [2] was 0.66, the Activity [3] was 28.8 and the log(activity) [3] was 1.46.
`CCCCNC(=O)c1sc2nc(OC)c(Cl)c(C)c2c1N` was tested, and the Kb [1] was 500 nM, the pKb [1] was 6.29 and the Intrinsic activity [2] was 2.8. It also gave a log(IA) [2] of 0.44, an Activity [3] of 15.5 and a log(activity) [3] of 1.19. The Ki [4] was 3200 nM, the Activity [5] was 123 and the log(activity) [5] was 2.09.
In the case of `CCNC(=O)c1sc2nc(OC)c(Cl)c(C)c2c1N`, the Kb [1] is reported as 200 nM, the pKb [1] is reported as 6.73 and the Intrinsic activity [2] is reported as 8.7. For the same molecule, the log(IA) [2] was 0.94, the Activity [3] was 69.2 and the log(activity) [3] was 1.84. It also gave a Ki [4] of 4300 nM, an Activity [5] of 562 and a log(activity) [5] of 2.75.
With `CCCCCC(=O)Nc1c(C(=O)NC2CC2)sc2nc(OC)c(Cl)c(C)c12` the Kb [1] was “inactive”, the pKb [1] was “inactive” and the Intrinsic activity [2] was “inactive”. For the same molecule, the “log(IA)” value [2] was “inactive”, the Activity [3] was “inactive” and the “log(activity)” value [3] was “inactive”.
`COc1nc2sc(C(=O)NC3CC3)c(N)c2c(C)c1Br` gave a Kb [1] of 300 nM, a pKb [1] of 6.52 and an Intrinsic activity [2] of 17.8. It also gave a log(IA) [2] of 1.25, an Activity [3] of 81.3 and a log(activity) [3] of 1.91. The Ki [4] was 520 nM, the Activity [5] was 347 and the log(activity) [5] was 2.54.
In the case of `COc1nc2sc(C(=O)NC3CC3)c(N)c2c(C)c1I`, the Kb [1] is reported as 200 nM, the pKb [1] is reported as 6.66 and the Intrinsic activity [2] is reported as 2.3. The log(IA) [2] was 0.37, the Activity [3] was 9.3 and the log(activity) [3] was 0.97. It also gave a Ki [4] of 1700 nM, an Activity [5] of 269 and a log(activity) [5] of 2.43.
Molecule `Cc1nc(C)c2c(N)c(C(=O)NC3CC3)sc2n1` has a Kb [1] of 12500 nM, a pKb [1] of 4.9 and an Intrinsic activity [2] of 3.1. It also gave a log(IA) [2] of 0.49, an Activity [3] of 14.1 and a log(activity) [3] of 1.15.
In the case of `Cc1nc2sc(C(=O)NC3CC3)c(N)c2c(C)c1Cl`, the Kb [1] is reported as 400 nM, the pKb [1] is reported as 6.45 and the Intrinsic activity [2] is reported as 12.9. The log(IA) [2] was 1.11, the Activity [3] was 77.6 and the log(activity) [3] was 1.89.
With `CCCCCCNC(=O)c1sc2nc(OC)c(Cl)c(C)c2c1N` the Kb [1] was 200 nM, the pKb [1] was 6.7 and the Intrinsic activity [2] was 0.4. The log(IA) [2] was -0.35, the Activity [3] was 1.3 and the log(activity) [3] was 0.13.
`Cc1cc(C)c2c(N)c(C(=O)NC3CC3)sc2n1` was tested, and the Intrinsic activity [2] was 5.9, the log(IA) [2] was 0.77 and the Activity [3] was 52.5. The log(activity) [3] was 1.72.
`COc1nc2sc(C(=O)NC3CC3)c(N)c2c(C)c1Cl` was tested, and the Kb [1] was 400 nM, the pKb [1] was 6.41 and the Intrinsic activity [2] was 8.5. The log(IA) [2] was 0.93, the Activity [3] was 240 and the log(activity) [3] was 2.38. The Ki [4] was 400 nM, the Activity [5] was 1740 and the log(activity) [5] was 3.24.
Molecule `CCCCCCOc1nc2sc(C(=O)NC3CC3)c(N)c2c(C)c1Cl` has a Kb [1] of 40 nM, a pKb [1] of 7.42 and an Intrinsic activity [2] of 0.2. The log(IA) [2] was -0.75, the Activity [3] was 2 and the log(activity) [3] was 0.3.
`CCCC(=O)Nc1c(C(=O)NC2CC2)sc2nc(OC)c(Cl)c(C)c12` was tested, and the Kb [1] was “inactive”, the pKb [1] was “inactive” and the Intrinsic activity [2] was “inactive”. For the same molecule, the “log(IA)” value [2] was “inactive”, the Activity [3] was “inactive” and the “log(activity)” value [3] was “inactive”.

From ChEMBL document CHEMBL3769348, “A structureactivity relationship study of the positive allosteric modulator LY2033298 at the M4muscarinic acetylcholine receptor” (Medchemcomm, 2015)
